Measurements from US20230346817A1, “COMPOSITION AND USE OF SGLT-2 INHIBITOR AND ANGIOTENSIN RECEPTOR BLOCKERS” (Beijing Creatron Institute of Pharmaceutical Research Co. …, priority 2020, published 2023).

Test: Related substances of active ingredient A, samples placed at 50° C. for 10 days
Format: physicochemical
Details: mixed powders
Experimental: The raw and auxiliary materials were weighed based on the formulation amount and mixed well. The mixed powder of each example was wrapped separately in a clean weighing paper, sealed in an aluminum foil bag, and placed at 50° C. for 10 days. Samples were then taken, determined for related substances and compared with the comparative example.

Related substances of active ingredient B after placed under the influencing factor: no increase in impurities
Compound: CCOc1ccc(Cc2cc([C@@H]3O[C@H](CO)[C@@H](O)[C@H](O)[C@H]3O)ccc2Cl)cc1 [active ingredient B, Dapagliflozin]
